Results on ten compounds are retold here after patent US20090275780A1, “PROCESS FOR CONTROLLING THE PARTICLE SIZE OF A 3-(TRIFLUOROMETHYL)PHENYL]-1-AMINOPROPANE DERIVATIVE” (MEDICHEM, S.A., priority 2008, published 2009).

The data set is described as follows: Particle size distribution by Malvern Mastersizer S particle size analyzer. The settings on record: for particle size D[v, 0.5] / particle size D[v, 0.9]: crystals as isolated after crystallization from isobutyl acetate and drying, by volume, mean of nine readings, hydrochloride; for AFTER MILLING D[v, 0..5] / AFTER MILLING D[v, 0.9]: after milling 1 hour, Specac Specamill, three agate balls, maximum amplitude; for BEFORE MILLING D[v, 0.9]: in µm (unit assumed). In kind it is physicochemical. Here is the method: The particle size for cinacalcet hydrochloride was measured using a Malvern Mastersizer S particle size analyzer with an MS1 Small Volume Sample Dispersion Unit stirred cell. A 300RF mm lens and a beam length of 2.4 mm were used. Samples for analysis were prepared by dispersing a weighed amount of cinacalcet hydrochloride (approximately 60 mg) in 20 mL of sample dispersant, previously prepared by dilution of 1.5 g of Soybean Lecithin to 200 mL with Isopar G. The suspension was delivered drop-wise to the background-corrected measuring cell filled with dispersant (Isopar G) until the obscuration reached the desired level. Nine repeated readings of the volume distributions were taken. For characterization, the values of D50 and D90 (by volume) were selected and reported as the mean of the nine values measured.

Where [1] appears, read: listed as Cinacalcet hydrochloride from Example 4, hydrochloride.
[2] abbreviates: listed as Cinacalcet hydrochloride from Example 7, hydrochloride.
[3] abbreviates: listed as Cinacalcet hydrochloride from Example 9, hydrochloride.

`C[C@@H](NCCCc1cccc(C(F)(F)F)c1)c1cccc2ccccc12.Cl` [Example 1, cinacalcet hydrochloride]: the “particle size D[v, 0.5]” value is recorded as 23.4 μm and the “particle size D[v, 0.9]” value was 95.4 μm.
`C[C@@H](NCCCc1cccc(C(F)(F)F)c1)c1cccc2ccccc12.Cl` [Example 2, cinacalcet hydrochloride]: the “particle size D[v, 0.5]” value came to 20.7 μm and the “particle size D[v, 0.9]” value is recorded as 86.1 μm.
In the case of `C[C@@H](NCCCc1cccc(C(F)(F)F)c1)c1cccc2ccccc12.Cl` [Example 3, cinacalcet hydrochloride], the “particle size D[v, 0.5]” value came out at 49.8 μm and the “particle size D[v, 0.9]” value amounted to 387.9 μm.
For the compound `C[C@@H](NCCCc1cccc(C(F)(F)F)c1)c1cccc2ccccc12.Cl` [Example 4, cinacalcet hydrochloride], the “particle size D[v, 0.5]” value is listed as 57.7 μm and the “particle size D[v, 0.9]” value is on record as 403.9 μm. For the same compound, under setting [1], the AFTER MILLING D[v, 0..5] is 25.7 µm; the AFTER MILLING D[v, 0.9] was 91.8 µm; the BEFORE MILLING D[v, 0..5] is 57.7 µm; the “BEFORE MILLING D[v, 0.9]” value was 403.9.
Take `C[C@@H](NCCCc1cccc(C(F)(F)F)c1)c1cccc2ccccc12.Cl` [Example 5, cinacalcet hydrochloride]: the “particle size D[v, 0.5]” value was 76.4 μm and the “particle size D[v, 0.9]” value is recorded as 456.0 μm.
On to `C[C@@H](NCCCc1cccc(C(F)(F)F)c1)c1cccc2ccccc12.Cl` [Example 6, cinacalcet hydrochloride], for which the “particle size D[v, 0.5]” value was 65.0 μm and the “particle size D[v, 0.9]” value is 392.3 μm.
As to `C[C@@H](NCCCc1cccc(C(F)(F)F)c1)c1cccc2ccccc12.Cl` [Example 7, cinacalcet hydrochloride], the “particle size D[v, 0.5]” value was 70.3 μm and the “particle size D[v, 0.9]” value stood at 431.7 μm. Under setting [2], the AFTER MILLING D[v, 0..5] was 21.2 µm; the AFTER MILLING D[v, 0.9] was 83.3 µm; the BEFORE MILLING D[v, 0..5] is 70.3 µm; the “BEFORE MILLING D[v, 0.9]” value is given as 431.7.
As to `C[C@@H](NCCCc1cccc(C(F)(F)F)c1)c1cccc2ccccc12.Cl` [Example 8, cinacalcet hydrochloride], the “particle size D[v, 0.5]” value stood at 67.2 μm and the “particle size D[v, 0.9]” value came to 459.0 μm.
As to `C[C@@H](NCCCc1cccc(C(F)(F)F)c1)c1cccc2ccccc12.Cl` [Example 9, cinacalcet hydrochloride], the “particle size D[v, 0.5]” value turned out to be 74.0 μm and the “particle size D[v, 0.9]” value came out at 518.3 μm. For the same compound, under setting [3], the AFTER MILLING D[v, 0..5] was 25.1 µm; the AFTER MILLING D[v, 0.9] is 76.7 µm; the BEFORE MILLING D[v, 0..5] is 74 µm; the “BEFORE MILLING D[v, 0.9]” value is 518.3.
On to `C[C@@H](NCCCc1cccc(C(F)(F)F)c1)c1cccc2ccccc12.Cl` [Example 11, cinacalcet hydrochloride], for which the “particle size D[v, 0.5]” value worked out at 99.8 μm and the “particle size D[v, 0.9]” value was 466.9 μm.
